Legend:
ID8agg and B16 cells = experiment: Chlorambucil in vitro cell growth, viability, apoptosis and calreticulin; type: cell-based, mouse
Procedure: FIGS. 34A-D: FIG. 34A, Cells cultured in vitro with chlorambucil at indicated concentrations and counts determined on Vi-Cell. p-value, unpaired t-test. VC, vehicle control. FIG. 34B, Annexin V-FITC/PI (AV/PI) dual staining assay. Upper left, necrotic cells). Lower left, live cells. Lower right, early apoptotic cells and upper right, late apoptotic cells. ID8agg (CAMB 5 μM) and B16 (CAMB 10 μM) cells were treated for 48 hours. FIG. 34C, CAMB-treated ID8agg and B16 cells stained with an isotype control or an anti-calreticulin (CRT) antibody followed by immunofluorescence cytometry. FIG. 34D, Tumor cells were treated with the indicated concentrations with CAMB 48 h. Cell viability was detected by CCK-8 assay and relative cell viability ratio were compared between WT cells and PD-L1KO or PD-Lllo cells at different concentration point.
Cell proliferation and viability assays: Cells (0.5-1×10^3) were plated in 96-well plastic culture plates in 100 μL medium and treated with CAMB. Cell viability was determined by a cell counting kit-8 (CCK-8) (Sigma). Absorbance was measured at 450 nm using a BioTek Synergy 2 Multi-Mode Plate Reader. Proliferation was assessed in triplicate in three separate experiments for in vitro all data shown.
(§1) Flow cytometry: Mice were sacrificed by cervical dislocation after induction of deep isoflurane anesthesia. ID8agg tumors were collected and cells were stained as described (Derup et al., 2020) using LSR II hardware and analyzed by FACS Diva (BD Bioscience) or Flow Jo software (Flow Jo, LLC). Anti-mouse (clone 10F.9G2) and human (clone 29E.2A3) PD-L1 [both PE/Cy7, Cat #124314 (mouse) 329718 (human)] were matched with isotype control. Apoptosis assessment used Annexin V and propidium iodide (Thermo Scientific) per manufacturer instruction.

ES2 cells = experiment: Tumor-initiating cell (TIC) flow cytometry, ES2 cells; type: cell-based, human
Procedure: FIGS. 40A-C: CAMB suppresses mTORC1 signals and reduces TIC numbers. FIG. 40A, Western blots for proteins in the mTORC1 pathway. Cells were treated with chlorambucil as indicated concentration for 48 hours. FIG. 40B, Western blot for LC3I/II to assess autophagy in cell lysates treated±chlorambucil at indicated concentrations. FIG. 40C, Percent of ALDH^hi TIC by flow cytometry of ES2 cells cultured±chlorambucil. Percent CD44^+CD24^+ ID8agg TIC and CD44^+CD133^+CD24^+ B16 TIC detected by flow cytometry.
as §1

PD-L1 = experiment: Tumor cell PD-L1 depletion by drugs (flow cytometry, immunoblot); type: cell-based, human and mouse
Procedure: High throughput Screening: B16 PD-L1 RFP cells were treated with 2.5 and 10 μM compounds from the Prestwick and LOPAC Libraries for 48 hours using the Agilent Bravo liquid pipetting platform. Then, cells were washed with PBS, and fixed with 4% paraformaldehyde (Electron Microscopy Sciences, Hatsfield, PA, Cat 15714S) and labeled with 2 μg/ml DAPI, (Molecular Probes, Cat D1306) and 1 μg/ml Cell Mask-Blue (Invitrogen, Cat. H32720). Plates were then imaged using the Operetta High Content Imaging System, Perkin Elmer, Waltham (DAPI and Cell Mask Blue, Ex 360-400, Em 410-480), and the RFP channels (Ex 520-550, Em 560-630) channels. Agents effecting ≥2-fold PD-L1 reduction in the RFP reporter without loss of ≥20% cell viability were candidate PD-L1 depletion agents.
as §1
Western blotting and immunoprecipitation: To prepare whole cell lysates, cells were harvested and lysed in RIPA (radioimmunoprecipitation assay) buffer plus 1 mM phenylmethylsulphonyl fluoride and Halt protease/phosphatase inhibitor cocktail (Thermo Scientific) at 4° C. Protein concentrations were measured by BCA Protein Assay Kit (Thermo Scientific). Protein was run on precast 4-15% sodium dodecyl sulfate polyacrylamide gels (Bio-Rad), transferred to polyvinylidene fluoride membranes (GE Water and Process Technologies), and then blocked in 5% non-fat milk for 1 hour at room temperature. The membranes were then incubated with 1:1000 diluted primary antibodies against indicated proteins (Cell Signaling). Specific antibody binding was detected by chemiluminescence using Western Lightening Plus regent (Perkin Elmer). Cells for (co) immunoprecipitation experiments were seeded in 15-cm dishes and cultured as described, using 6 million cells per immunoprecipitation reaction. For protein ubiquitination, cells were lysed in denaturing buffer (50 mM Tris-HCl, 0.5 mM EDTA and 1% SDS) followed by heating at 95° C. for 10 minutes and then quenched with 9 volumes of quenching buffer (0.5% Triton X-100, 20 mM Tris-HCl (pH 8.0), 137 mM NaCl, 10% glycerol, 2 mM EDTA). Protease inhibitor cocktail (Roche) was added fresh to all buffers. Cell lysates were incubated on a rotator for 30 minutes at 4° C., and then centrifuged at 20,000 g for 15 minutes at 4° C. Supernatants were subsequently incubated with anti-PD-L1 antibody overnight and processed using Dynabeads Protein G for Immunoprecipitation (Thermo Fisher Scientific). The final eluate was processed and Western blotting was performed.

B16 tumors = experiment: B16 tumor challenge in mice treated with chlorambucil; type: in vivo, mouse
From the text: Mice and in vivo treatments: Wild-type (WT) C57BL/6 mice NSG were purchased from Jackson Labs (Bar Harbor, ME), bred in our animal facility and used at 7-20 weeks old. All mice were given ad libitum water and food and housed under specific pathogen-free conditions. Mice used here were matched for sex and age in each experiment. 1×10^5 control or PD-L1^KOB16 cells were given subcutaneously (SQ, both sexes). 4×10^6 control or PD-L1^lo ID8agg cells in log growth phase were given intraperitoneally (females only). B16 tumor growth was measured with Vernier calipers and volume was calculated as (length×width^2)/2. Intraperitoneal ID8agg tumor growth was determined by IVIS Lumina Imaging System (Perkin Elmer; Waltham, MA) 15 minutes after i.p. injection of 3 mg of PBS-dissolved d-luciferin K+ (Gold Biotechnology; St. Louis, MO) with 30 second exposures, medium binning, and F/stop=1. Identical regions of interest were drawn over each subject's abdomen and average radiance (photons/see/cm2/sr) was quantified with Living Image software version 4.2. Body weight was measured every week for PD-L1^lo ID8agg mice as a surrogate for tumor growth, and tumors were weighed at end-experiment in confirmation. Survival was determined as >1500 mm^3 for SQ tumors and distress or >20% mouse weight gain for PD-L1^lo ID8agg tumors. […]

## O=C(O)CCCc1ccc(N(CCCl)CCCl)cc1 [chlorambucil]
ID8agg and B16 cells
  cell growth in vitro: inhibited cell growth in vitro with little or no killing
  cell surface calreticulin: significantly increased
  immunogenic cell death (ICD): induced ICD independent of tumor PD-L1 status
  sensitivity of CTRL cells compared with PD-L1^lo or PD-L1^KO cells: more sensitive
ID8agg and B16 cells; ID8agg or B16 cells
  apoptosis: did not induce apoptosis
ES2 cells
  ALDH^hi TIC population: significantly reduced
PD-L1; over 2-3 days, human and mouse tumor lines
  effect on cell viability: little effect on cell viability
PD-L1; summary statement
  expression of PD-L1 in cancer cells: decreased expression of PD-L1
B16 tumors; WT mice
  treatment efficacy in PD-L1^KO B16 challenge: significantly reduced
B16 tumors; severely immunodeficient NSG mice, B16
  treatment of tumors: effectively treated both
